For this assay, the system named is TNC, ACTA2, PAI-1 transcripts in lung cancer-associated fibroblasts (CAF). Nature of the assay: TGF-β-induced gene transcription, fibroblast activation markers (RT-PCR). The class given is cell-based, human. The procedure:
FIGS. 9A-9C illustrates the effect of Compound 1 on Transcriptional Markers of Fibroblast Activation in Lung Cancer Associated Fibroblasts Treated with TGF-β. […] Lung cancer-associated fibroblasts (CAF, black bars) were treated with 10 ng/mL TGF-β after 1-hour pre-incubation with a range of Compound 1 concentrations, and cells were lysed 24 hours later. Indicated gene transcripts were assessed by RT-PCR relative to GAPDH. Data were normalized to expression after TGF-β-treatment in the presence of only DMSO. Data are presented as mean of 3 biological replicates, and error bars indicate standard deviation. The graphs are representative of at least 2 independent experiments. *P<0.05; ** P<0.01, ***P<0.001; ****P<0.0001 by student's t-test. Abbreviations: ACTA2, smooth muscle actin; CAF, cancer associated fibroblasts; DMSO, dimethyl sulfoxide; GAPDH, glyceraldehyde-3-phosphate dehydrogenase; NHLF, normal lung human fibroblasts; PAI-1, plasminogen activator inhibitor 1; RNA, ribonucleic acid; RT-PCR, reverse transcription polymerase chain reaction; […], transforming growth factor beta; TNC, tenascin C.
Cells were seeded (75,000 NHLF and lung CAF cells) into 12 well plates with RPMI+10% FBS and allowed to adhere overnight at 37° C., 5% CO2. After one day of serum starvation, cells were pre-treated for 1 hour with DMSO or Compound 1 at 30 μM, 10 μM, 3 μM, 1 μM, or 0.3 μM and then stimulated with 10 ng/mL TGF-β. The 24-hour Compound 1 treated samples were harvested for ribonucleic acid (RNA) extraction.
Cells were directly lysed in Qiagen™ Buffer RLT Plus with 1% 2-Mercaptoethanol added. Total RNA from tumor samples and cell lines was isolated using Qiagen™ AllPrep® DNA/RNA 96 Kit according to manufacturer's protocol. Isolated RNA was analyzed with NanoDrop™ ONE Spectrophotometer for concentration. The RNA integrity was also analyzed on Agilent TapeStation 4200.
Complimentary deoxyribonucleic acid (cDNA) was prepared by using Invitrogen™ SuperScript™ III First-Strand Synthesis SuperMix for qRT-PCR. Up to 1 μg of RNA was prepared according to manufacturer's protocol, using Applied Biosystems™ Veriti™ 96-well thermal cycler. The reverse transcription (RT) program used for cDNA synthesis: • 1. 25° C., 10 minutes • 2. 50° C., 30 minutes • 3. 85° C., 5 minutes • 4. Add E. Coli RNase H, 37° C., 20 minutes • 5. Hold at 4° C. Quantitative Reverse Transcription Polymerase Chain Reaction (qRT-PCR).
The cDNA was diluted 1:3 fold in nuclease-free water for quantitative polymerase chain reaction (qPCR) setup. Human and mouse TaqMan™ assays for targeted genes were ordered through Applied Biosystems™. TaqMan™ assay selection was based on manufacturer's recommendation. The qRT-PCR was set up using Applied Biosystems™ TaqMan™ Fast Advanced Master Mix according to manufacturer's protocol. The qRT-PCR was run on QuantStudio™ 12 Flex with fast run mode: • 1. 95° C., 20 seconds • 2. 95° C., 1 second • 3. 60° C., 20 seconds • 4. Repeat steps 2-3, 39 times
The qPCR data was analyzed, and all cycle threshold (Ct) values were normalized to glyceraldehyde-3-phosphate dehydrogenase (GAPDH) (ΔCt). Analysis was plotted and presented using GraphPad Prism (GraphPad, Version 8.4.1, San Diego, CA).
The levels of phospho-c-Jun in NHLF and non-small cell lung CAF in response to TGF-β in the presence of DMSO or varying concentrations of Compound 1 were summarized in FIG. 7. Cells were treated with DMSO or Compound 1 for 1 hour prior to treatment with 10 ng/mL TGF-β for an additional 2 hours. Phospho-c-Jun levels were determined by western blot analysis and were normalized to DMSO treated samples. […] The relative expression of fibroblast activation markers in NHLF and lung CAF in response to TGF-β in the presence of DMSO or varying concentrations of Compound 1 were summarized in FIGS. 8A-8C and FIGS. 9A-9C. Cells were treated with DMSO or Compound 1 for 2 hours prior to treatment with 10 ng/mL TGF-β. The RNA expression was assessed 24 hours after TGF-β treatment.

[1] abbreviates: CAF stimulated with TGFβ, 10 μM Compound 1.
The mark [2] stands for this setting: CAF, 30 μM Compound 1, 10 ng/mL TGF-β, 24 hours.

Each structure is given as a SMILES string.

With `C[C@@H]1CC[C@@H](Nc2nc(NC(C)(C)C)ncc2C(N)=O)C[C@H]1O` [Compound 1, 2-(tert-butylamino)-4-((1R,3R,4R)-3-hydroxy-4-methylcyclohexylamino)-pyrimidine-5-carboxamide], under setting [1], the “PAI-1 reduced relative to DMSO” value was “PAI-1, ACTA2, and TNC were reduced 71%,”; the “TNC reduced relative to DMSO” value is on record as 77%. For the same compound, the “TNC induction, reduction from peak activation relative to baseline” value (CAF, 0.3 μM Compound 1, 10 ng/mL TGF-β, 24 hours) amounted to 34%. The “PAI-1 induction, reduction from peak activation relative to baseline” value (CAF, 1 μM Compound 1, 10 ng/mL TGF-β, 24 hours) is on record as 25%. Besides, the “ACTA2 induction, reduction from peak activation relative to baseline” value (CAF, 10 μM Compound 1, 10 ng/mL TGF-β, 24 hours) came to 71%. Moreover, under setting [2], the ACTA2 expression entry is “lower than samples in the absence of TGF-β”; the “PAI-1 induction, reduction from peak activation relative to baseline” value is given as 98%; the “TNC induction, reduction from peak activation relative to baseline” value turned out to be 97%.

For the origin of these results see patent US20240165112A1, “THERAPY FOR THE TREATMENT OF CANCER” (Bristol-Myers Squibb Company, priority 2022, published 2024).
